Experimental findings from ChEMBL document CHEMBL4507291 (2021) are described below.

Molecules are shown by their SMILES.

In test [1] the target is Leucine-rich repeat serine/threonine-protein kinase 2 (Homo sapiens, UniProt Q5S007). Nature of the test: Cellular assay monitoring dephosphorylation of pSer935 LRRK2.
For test [2], the target named is Kappa-type opioid receptor (Homo sapiens) (UniProt P41145). The following applies: Compound concentration 10.0 uM.
Test [3] deals with Dual specificity protein kinase CLK4 (Homo sapiens) (UniProt Q9HAZ1). The test is described as follows: CLK4 Kinase screen. The following applies: Compound concentration 1.0 uM.
The species named for another test is Rattus norvegicus. The test is described as follows: Protein Serine/Threonine Kinase, PKC, Non-Selective Eurofins-Panlabs enzyme assay. The following applies: Compound concentration 10.0 uM.
Test [4] deals with Neurotensin receptor type 1 (Homo sapiens) (UniProt P30989). Nature of the test: Neurotensin NT1 Eurofins-Panlabs radioligand binding assay. Also noted: ligand concentration 0.02 nM, non-specific ligand with concentration 1 µM Neurotensin, incubation time 45 min, incubation temperature 25 °C. The settings on record: Compound concentration 10.0 uM.
For test [5], the system named is Fibroblast growth factor receptor 3 (Homo sapiens), P22607 [K650E]. Nature of the test: FGFR3 K650E Kinase screen. The following applies: Compound concentration 1.0 uM.
In test [6] the target is T1, Mitogen-activated protein kinase 12 (Homo sapiens) (UniProt P53778).
T1 sequence (whole entry): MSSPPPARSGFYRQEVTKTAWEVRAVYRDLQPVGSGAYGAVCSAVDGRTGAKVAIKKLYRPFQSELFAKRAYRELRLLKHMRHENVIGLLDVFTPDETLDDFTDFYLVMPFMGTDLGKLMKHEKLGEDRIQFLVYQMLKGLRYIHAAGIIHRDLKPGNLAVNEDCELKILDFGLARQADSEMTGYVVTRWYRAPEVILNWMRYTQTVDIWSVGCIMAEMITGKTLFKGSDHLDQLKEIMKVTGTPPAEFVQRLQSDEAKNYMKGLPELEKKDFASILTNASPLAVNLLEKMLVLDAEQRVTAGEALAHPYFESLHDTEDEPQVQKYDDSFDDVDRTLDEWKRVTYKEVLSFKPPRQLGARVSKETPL
Nature of the test: MAPK12 (p38 gamma) Kinase screen. The following applies: Compound concentration 1.0 uM.

Test [7] has as its target T2, Alpha-2B adrenergic receptor (Homo sapiens) (UniProt P18089).
T2 sequence (whole entry): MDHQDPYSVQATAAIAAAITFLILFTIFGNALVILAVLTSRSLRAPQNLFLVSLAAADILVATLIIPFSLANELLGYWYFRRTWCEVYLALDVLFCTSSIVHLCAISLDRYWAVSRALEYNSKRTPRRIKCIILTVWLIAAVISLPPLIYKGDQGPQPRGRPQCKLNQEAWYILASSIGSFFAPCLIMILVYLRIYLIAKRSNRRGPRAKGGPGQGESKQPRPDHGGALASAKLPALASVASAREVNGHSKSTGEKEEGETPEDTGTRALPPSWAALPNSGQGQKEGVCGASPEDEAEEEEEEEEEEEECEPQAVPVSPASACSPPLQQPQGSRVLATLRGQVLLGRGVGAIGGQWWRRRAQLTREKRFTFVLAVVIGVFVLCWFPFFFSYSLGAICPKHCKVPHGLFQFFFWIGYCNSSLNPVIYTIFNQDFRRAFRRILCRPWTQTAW
The settings on record: Compound concentration 10.0 uM.

Test [8] addresses Prostaglandin E2 receptor EP1 subtype (Homo sapiens) (UniProt P34995). The test is described as follows: Prostanoid EP1 Eurofins-Panlabs radioligand binding assay. The following applies: Compound concentration 10.0 uM. Also noted: ligand concentration 1 nM.
Test [9] has as its system Epidermal growth factor receptor (Homo sapiens), P00533 [L858R]. The test is described as follows: EGFR (ErbB1) L858R Kinase screen. The following applies: Compound concentration 1.0 uM.
The target of test [10] is Focal adhesion kinase 1 (Homo sapiens) (UniProt Q05397). Nature of the test: PTK2 (FAK) Kinase screen. The settings on record: Compound concentration 1.0 uM.
The target in test [11] is Ephrin type-A receptor 7 (Homo sapiens) (UniProt Q15375). Nature of the test: EPHA7 Kinase screen. The following applies: Compound concentration 1.0 uM.
Test [12] addresses Activated CDC42 kinase 1 (Homo sapiens) (UniProt Q07912). Nature of the test: TNK2 (ACK) Kinase screen. The following applies: Compound concentration 1.0 uM.
In test [13] the target is Cannabinoid receptor 2 (Homo sapiens) (UniProt P34972).
The target of test [14] is T3, Homeodomain-interacting protein kinase 4 (Homo sapiens) (UniProt Q8NE63).
T3 sequence (whole entry): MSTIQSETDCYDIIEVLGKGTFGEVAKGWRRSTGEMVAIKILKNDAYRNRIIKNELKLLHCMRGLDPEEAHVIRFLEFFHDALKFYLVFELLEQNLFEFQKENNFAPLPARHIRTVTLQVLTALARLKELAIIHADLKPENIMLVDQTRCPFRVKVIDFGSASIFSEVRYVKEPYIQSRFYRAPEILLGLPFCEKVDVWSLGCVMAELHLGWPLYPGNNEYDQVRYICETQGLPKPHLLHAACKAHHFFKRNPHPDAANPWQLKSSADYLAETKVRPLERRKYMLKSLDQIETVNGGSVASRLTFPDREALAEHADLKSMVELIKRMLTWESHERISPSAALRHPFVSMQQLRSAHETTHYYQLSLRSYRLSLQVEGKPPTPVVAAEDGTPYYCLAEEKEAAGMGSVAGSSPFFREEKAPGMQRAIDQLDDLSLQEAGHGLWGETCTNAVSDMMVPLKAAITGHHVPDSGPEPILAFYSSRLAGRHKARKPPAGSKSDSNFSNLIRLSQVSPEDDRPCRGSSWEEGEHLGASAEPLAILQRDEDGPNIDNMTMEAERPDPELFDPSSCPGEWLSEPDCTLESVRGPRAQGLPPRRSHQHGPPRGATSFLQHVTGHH
Nature of the test: HIPK4 Kinase screen. The settings on record: Compound concentration 1.0 uM.

Test [15] deals with Substance-K receptor (Homo sapiens) (UniProt P21452). The test is described as follows: Inhibition of Tachykinin NK2 at 10 µM in the Eurofins-Panlabs radioligand binding assay (Eurofins_assay_255600). More on the design: ligand concentration 0.5 nM. The settings on record: Compound concentration 10.0 uM.
Test [16] concerns the target Phosphatidylinositol 4-phosphate 3-kinase C2 domain-containing subunit beta (Homo sapiens) (UniProt O00750). The test is described as follows: PIK3C2B (PI3K-C2 beta) Kinase screen. The settings on record: Compound concentration 1.0 uM.
Test [17] addresses Melanocortin receptor 3 (Homo sapiens) (UniProt P41968). The test is described as follows: Inhibition of Melanocortin MC3 at 10 µM in the Eurofins-Panlabs radioligand binding assay (Eurofins_assay_251300). Also noted: ligand concentration 0.035 nM. The following applies: Compound concentration 10.0 uM.

Chain of Cannabinoid receptor 2 (Homo sapiens) (P34972 whole entry): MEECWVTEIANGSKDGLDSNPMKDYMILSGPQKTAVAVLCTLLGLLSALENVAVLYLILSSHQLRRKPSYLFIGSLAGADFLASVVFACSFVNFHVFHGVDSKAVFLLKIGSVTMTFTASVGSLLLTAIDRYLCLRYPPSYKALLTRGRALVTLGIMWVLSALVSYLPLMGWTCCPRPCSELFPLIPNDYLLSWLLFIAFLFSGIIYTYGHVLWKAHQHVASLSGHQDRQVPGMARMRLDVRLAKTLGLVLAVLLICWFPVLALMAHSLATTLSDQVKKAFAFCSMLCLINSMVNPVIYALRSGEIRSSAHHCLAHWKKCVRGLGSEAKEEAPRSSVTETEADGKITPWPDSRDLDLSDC
Chain of Leucine-rich repeat serine/threonine-protein kinase 2 (Q5S007 whole entry): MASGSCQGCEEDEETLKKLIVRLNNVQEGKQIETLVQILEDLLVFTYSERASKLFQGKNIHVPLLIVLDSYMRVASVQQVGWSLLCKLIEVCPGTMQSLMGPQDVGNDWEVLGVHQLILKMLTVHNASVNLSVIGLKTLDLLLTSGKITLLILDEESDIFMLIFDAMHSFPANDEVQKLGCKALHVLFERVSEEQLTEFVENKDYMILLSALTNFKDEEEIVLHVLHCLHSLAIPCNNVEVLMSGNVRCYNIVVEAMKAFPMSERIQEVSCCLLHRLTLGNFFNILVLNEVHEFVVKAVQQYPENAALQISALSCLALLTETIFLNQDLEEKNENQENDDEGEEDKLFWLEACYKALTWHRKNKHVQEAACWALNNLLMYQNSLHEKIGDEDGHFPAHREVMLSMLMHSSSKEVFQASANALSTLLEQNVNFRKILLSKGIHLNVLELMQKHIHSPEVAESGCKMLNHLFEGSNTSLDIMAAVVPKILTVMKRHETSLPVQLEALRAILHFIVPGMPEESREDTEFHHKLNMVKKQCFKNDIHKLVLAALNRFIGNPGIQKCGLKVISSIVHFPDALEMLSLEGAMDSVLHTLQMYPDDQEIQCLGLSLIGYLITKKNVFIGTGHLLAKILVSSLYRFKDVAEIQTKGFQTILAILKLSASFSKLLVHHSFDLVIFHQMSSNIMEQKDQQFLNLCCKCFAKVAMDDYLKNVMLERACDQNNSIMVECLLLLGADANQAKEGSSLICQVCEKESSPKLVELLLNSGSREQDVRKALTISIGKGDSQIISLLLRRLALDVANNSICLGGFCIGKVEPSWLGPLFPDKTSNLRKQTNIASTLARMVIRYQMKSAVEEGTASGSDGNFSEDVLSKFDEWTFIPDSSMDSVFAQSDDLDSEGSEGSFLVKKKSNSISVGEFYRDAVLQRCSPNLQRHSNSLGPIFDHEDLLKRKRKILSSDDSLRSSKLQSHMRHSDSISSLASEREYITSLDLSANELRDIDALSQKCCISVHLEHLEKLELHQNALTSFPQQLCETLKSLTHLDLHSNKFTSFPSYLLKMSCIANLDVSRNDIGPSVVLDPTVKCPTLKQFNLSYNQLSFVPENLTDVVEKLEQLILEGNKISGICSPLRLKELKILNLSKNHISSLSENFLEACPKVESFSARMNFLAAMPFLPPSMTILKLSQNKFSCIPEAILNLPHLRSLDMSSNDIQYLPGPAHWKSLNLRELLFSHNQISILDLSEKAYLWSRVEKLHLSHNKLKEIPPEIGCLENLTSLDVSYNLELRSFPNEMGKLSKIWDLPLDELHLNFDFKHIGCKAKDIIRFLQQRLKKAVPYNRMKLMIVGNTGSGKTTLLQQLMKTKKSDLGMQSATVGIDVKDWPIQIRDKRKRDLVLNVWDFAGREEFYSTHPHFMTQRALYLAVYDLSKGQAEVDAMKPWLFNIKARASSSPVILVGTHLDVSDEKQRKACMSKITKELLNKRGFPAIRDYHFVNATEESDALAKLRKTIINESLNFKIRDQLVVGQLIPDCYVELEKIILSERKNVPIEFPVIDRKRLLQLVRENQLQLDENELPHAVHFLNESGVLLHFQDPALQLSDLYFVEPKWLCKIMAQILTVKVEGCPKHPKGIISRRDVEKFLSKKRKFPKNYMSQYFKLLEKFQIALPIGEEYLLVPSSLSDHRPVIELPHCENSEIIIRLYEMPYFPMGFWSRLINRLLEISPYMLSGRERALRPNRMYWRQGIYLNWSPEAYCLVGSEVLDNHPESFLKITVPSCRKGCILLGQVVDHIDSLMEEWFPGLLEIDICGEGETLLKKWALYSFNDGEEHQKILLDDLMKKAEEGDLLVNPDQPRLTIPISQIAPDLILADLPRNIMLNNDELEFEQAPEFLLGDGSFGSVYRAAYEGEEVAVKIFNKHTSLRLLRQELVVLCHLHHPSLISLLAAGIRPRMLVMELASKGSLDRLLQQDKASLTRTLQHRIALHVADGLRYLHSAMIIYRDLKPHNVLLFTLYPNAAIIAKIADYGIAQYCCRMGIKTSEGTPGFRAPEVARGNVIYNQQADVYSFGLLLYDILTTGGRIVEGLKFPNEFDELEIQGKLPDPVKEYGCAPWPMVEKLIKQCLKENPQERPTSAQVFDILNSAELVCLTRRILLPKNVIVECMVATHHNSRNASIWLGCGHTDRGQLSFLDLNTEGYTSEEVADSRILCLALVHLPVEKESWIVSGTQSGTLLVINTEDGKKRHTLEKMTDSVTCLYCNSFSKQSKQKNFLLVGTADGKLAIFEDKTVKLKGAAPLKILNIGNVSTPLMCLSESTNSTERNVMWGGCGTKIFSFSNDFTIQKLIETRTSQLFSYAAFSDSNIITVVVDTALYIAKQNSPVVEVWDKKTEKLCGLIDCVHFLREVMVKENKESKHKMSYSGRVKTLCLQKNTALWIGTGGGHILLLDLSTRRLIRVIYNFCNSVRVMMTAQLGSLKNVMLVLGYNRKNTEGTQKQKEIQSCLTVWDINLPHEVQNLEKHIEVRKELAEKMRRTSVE
Chain of Prostaglandin E2 receptor EP1 subtype (Homo sapiens) (P34995 whole entry): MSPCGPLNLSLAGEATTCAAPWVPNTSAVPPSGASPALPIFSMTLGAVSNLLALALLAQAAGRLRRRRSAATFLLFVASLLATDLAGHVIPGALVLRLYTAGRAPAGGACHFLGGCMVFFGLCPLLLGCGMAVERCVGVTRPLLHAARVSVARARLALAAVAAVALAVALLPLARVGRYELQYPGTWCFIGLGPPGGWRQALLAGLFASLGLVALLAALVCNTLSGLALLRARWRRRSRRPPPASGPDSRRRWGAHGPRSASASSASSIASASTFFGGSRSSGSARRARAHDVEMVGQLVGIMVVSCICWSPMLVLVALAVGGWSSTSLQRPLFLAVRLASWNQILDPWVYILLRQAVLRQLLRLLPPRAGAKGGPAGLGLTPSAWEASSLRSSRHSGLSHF
Chain of Melanocortin receptor 3 (Homo sapiens) (P41968 whole entry): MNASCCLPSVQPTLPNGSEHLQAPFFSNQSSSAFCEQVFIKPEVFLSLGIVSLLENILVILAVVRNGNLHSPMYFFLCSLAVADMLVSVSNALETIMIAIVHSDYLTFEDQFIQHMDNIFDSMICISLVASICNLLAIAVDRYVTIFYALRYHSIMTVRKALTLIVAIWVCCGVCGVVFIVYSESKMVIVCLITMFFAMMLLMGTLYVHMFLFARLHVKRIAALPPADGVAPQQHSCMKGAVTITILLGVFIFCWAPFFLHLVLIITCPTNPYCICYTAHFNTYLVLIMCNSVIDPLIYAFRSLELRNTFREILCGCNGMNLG
Chain of Neurotensin receptor type 1 (Homo sapiens) (P30989 whole entry): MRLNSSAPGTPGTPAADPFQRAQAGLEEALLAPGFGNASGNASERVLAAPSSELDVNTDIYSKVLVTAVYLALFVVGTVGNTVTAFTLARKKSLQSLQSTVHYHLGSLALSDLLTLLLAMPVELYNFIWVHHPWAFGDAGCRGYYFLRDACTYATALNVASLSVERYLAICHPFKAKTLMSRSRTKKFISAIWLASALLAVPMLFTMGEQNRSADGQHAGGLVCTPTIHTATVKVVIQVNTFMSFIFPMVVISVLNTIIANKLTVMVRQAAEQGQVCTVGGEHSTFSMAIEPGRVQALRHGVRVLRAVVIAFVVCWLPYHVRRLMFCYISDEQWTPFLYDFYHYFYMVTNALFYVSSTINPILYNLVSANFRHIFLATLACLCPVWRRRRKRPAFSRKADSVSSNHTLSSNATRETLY
Chain of Fibroblast growth factor receptor 3 (Homo sapiens), P22607 [K650E] (P22607 whole entry K650E): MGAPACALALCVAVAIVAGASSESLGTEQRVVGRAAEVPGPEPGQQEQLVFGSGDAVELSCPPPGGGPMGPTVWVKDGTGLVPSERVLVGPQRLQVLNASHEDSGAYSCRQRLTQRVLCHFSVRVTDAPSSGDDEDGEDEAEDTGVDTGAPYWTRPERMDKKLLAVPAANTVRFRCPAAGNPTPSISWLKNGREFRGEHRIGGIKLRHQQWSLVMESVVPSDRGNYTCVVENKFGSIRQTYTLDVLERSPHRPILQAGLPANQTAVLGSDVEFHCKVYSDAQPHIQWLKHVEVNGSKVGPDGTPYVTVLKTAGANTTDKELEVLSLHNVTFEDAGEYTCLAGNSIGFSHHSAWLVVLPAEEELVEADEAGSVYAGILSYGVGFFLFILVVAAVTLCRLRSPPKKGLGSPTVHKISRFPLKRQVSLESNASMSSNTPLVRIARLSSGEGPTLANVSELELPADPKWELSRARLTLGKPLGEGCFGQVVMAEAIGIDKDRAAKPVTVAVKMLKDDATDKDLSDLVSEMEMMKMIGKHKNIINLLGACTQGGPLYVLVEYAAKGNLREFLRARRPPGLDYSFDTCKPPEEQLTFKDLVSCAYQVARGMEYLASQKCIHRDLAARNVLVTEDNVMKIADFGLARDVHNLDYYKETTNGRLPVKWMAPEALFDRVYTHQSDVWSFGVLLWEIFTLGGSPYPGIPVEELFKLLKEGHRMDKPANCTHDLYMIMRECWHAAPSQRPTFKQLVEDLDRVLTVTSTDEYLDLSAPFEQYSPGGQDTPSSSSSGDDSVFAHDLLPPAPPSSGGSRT

Regarding `C[C@@H]1CN(c2cc(-c3nn(C)c4ccc(OC5(C)CC5)cc34)ncn2)C[C@H](C)O1` [MLi-2-NC], in [1], the IC50 – broadly, the concentration at which inhibition is half-maximal – was 5.44 µM (not active).
Take `C[C@@H]1CN(c2cc(-c3n[nH]c4ccc(OC5(C)CC5)cc34)ncn2)C[C@H](C)O1` [MLi-2]: the inhibition (in general, the relative decrease from the control value, in per cent) in test [2] is 19%; in [3], 80.1%; in the test filed under Rattus norvegicus it was 26%; in test [4], -2%; in test [5], 3.43%; in test [6], 1%. The inhibition in test [7] was 2%; in test [8], 16%; in [9], -0.455%; in [10], 14.2%; in [11], 8.11%; in [12], 22.9%. Besides, the inhibition in test [13] (Compound concentration 3.0 uM) is 2%; in [13] (Compound concentration 10.0 uM), 2%; in test [14], 6.2%; in [15] it was 27%; in test [16] it was -3.26%; in [17], -2%.
